Where a SMILES comes first, the peptide text is derived from it. [ ]: non-standard residue; d: D form.
Experiments:
[1] = test system: clinical strains of Acinetobacter johnsonii; format: cell-based; conditions: Acinetobacter johnsonii clinical strain 1; microdilution, Muller Hinton broth-cation adjusted, 0.02% BSA, 0.2% acetic acid
Summary of the method: (§1)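 Clinical isolates at 5.0×10^5 cfu/ml in Mueller-Hinton broth (Potato dextrose broth for yeasts) were exposed to Chain peptides at 0.125–128 μg/ml by broth microdilution, 37 °C for 20–24 h. MIC was the lowest concentration with no visible growth.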

[2] = test system: clinical strains of Candida albicans; experiment: MIC, clinical yeast strains, Candida albicans; format: cell-based; parameters: unit: μg/ml
Summary of the method: as §1

[3] = test system: clinical strains of Escherichia coli; experiment: MIC, clinical strains of E. coli; format: cell-based; parameters: unit: μg/ml; conditions: microdilution, Muller Hinton broth-cation adjusted, 0.02% BSA, 0.2% acetic acid
Summary of the method: as §1

[4] = test system: clinical strains of C. quillermondiae; experiment: MIC, clinical yeast strains, C. quillermondiae; format: cell-based; conditions: C. quillermondiae clinical yeast strain 1
Summary of the method: as §1

[5] = test system: clinical strains of Proteus mirabilis; experiment: MIC, clinical strains of Proteus mirabilis; format: cell-based; parameters: unit: µg/mL; conditions: microdilution, Muller Hinton broth-cation adjusted, 0.02% BSA, 0.2% acetic acid
Summary of the method: as §1

[6] = test system: clinical strains of Serratia marcescens; experiment: MIC, clinical strains of Serratia marcescens; format: cell-based; parameters: unit: µg/mL; conditions: microdilution, Muller Hinton broth-cation adjusted, 0.02% BSA, 0.2% acetic acid
Summary of the method: as §1

[7] = test system: clinical strains of Streptococcus pneumoniae; experiment: MIC, clinical strains of Streptococcus pneumoniae; format: cell-based; parameters: unit: µg/mL; conditions: microdilution, Muller Hinton broth-cation adjusted, 0.02% BSA, 0.2% acetic acid
Summary of the method: as §1

[8] = test system: clinical strains of C. glabrata; experiment: MIC, clinical yeast strains, C. glabrata; format: cell-based, Candida glabrata; parameters: unit: μg/ml
Summary of the method: as §1

[9] = test system: clinical strains of Staphylococcus aureus; experiment: MIC, clinical strains of S. aureus; format: cell-based; parameters: unit: μg/ml; conditions: microdilution, Muller Hinton broth-cation adjusted, 0.02% BSA, 0.2% acetic acid
Summary of the method: as §1

[10] = test system: clinical strains of Klebsiella pneumoniae; experiment: MIC, clinical strains of K. pneumoniae; format: cell-based; parameters: unit: μg/ml; conditions: microdilution, Muller Hinton broth-cation adjusted, 0.02% BSA, 0.2% acetic acid
Summary of the method: as §1

[11] = test system: clinical strains of Acinetobacter baumannii; experiment: MIC, clinical strains of Acinetobacter baumannii; format: cell-based; conditions: microdilution, Muller Hinton broth-cation adjusted, 0.02% BSA, 0.2% acetic acid
Summary of the method: as §1

[12] = test system: clinical strains of Enterobacter cloacae; experiment: MIC, clinical strains of Enterobacter cloacae; format: cell-based; parameters: unit: μg/ml; conditions: microdilution, Muller Hinton broth-cation adjusted, 0.02% BSA, 0.2% acetic acid
Summary of the method: as §1

[13] = test system: clinical strains of C. parapsilosis; experiment: MIC, clinical yeast strains, C. parapsilosis; format: cell-based, Candida parapsilosis; parameters: unit: μg/ml
Summary of the method: as §1

[14] = test system: clinical strains of Pseudomonas aeruginosa; experiment: MIC, clinical strains of P. aeruginosa; format: cell-based; parameters: unit: μg/ml; conditions: microdilution, Muller Hinton broth-cation adjusted, 0.02% BSA, 0.2% acetic acid
Summary of the method: as §1

Work on `CC(C)C[C@@H](NC(=O)[C@H](N)CCCNC(=N)N)C(=O)N[C@H](CCCCN)C(=O)N[C@H](CCCNC(=N)N)C(=O)N[C@H](Cc1c[nH]c2ccccc12)C(=O)N[C@H](CCCNC(=N)N)C(=O)N[C@H](CC(C)C)C(=O)N[C@H](Cc1ccccc1)C(=O)N[C@H](CCCNC(=N)N)C(=O)N[C@H](CCCCN)C(=O)N[C@H](CCCNC(=N)N)C(=O)O` [Chain306D] (H-[dR][dL][dK][dR][dW][dR][dL][dF][dR][dK][dR]-OH) yielded a Minimum inhibitory concentration [1] of 16, a Minimum inhibitory concentration ([2]; Candida albicans clinical yeast strain 1) of 16 and a Minimum inhibitory concentration ([2]; Candida albicans clinical yeast strain 2) of 8. The Minimum inhibitory concentration ([2]; Candida albicans clinical yeast strain 3) was 8, the Minimum inhibitory concentration ([2]; Candida albicans clinical yeast strain 4) was 16 and the Minimum inhibitory concentration ([2]; Candida albicans clinical yeast strain 5) was 16. It also gave a Minimum inhibitory concentration ([3]; Escherichia coli clinical strain 1) of 1, a Minimum inhibitory concentration ([3]; Escherichia coli clinical strain 2) of 2 and a Minimum inhibitory concentration ([3]; Escherichia coli clinical strain 3) of 2. For the same compound, the Minimum inhibitory concentration ([3]; Escherichia coli clinical strain 4) was 2, the Minimum inhibitory concentration ([3]; Escherichia coli clinical strain 5) was 2 and the Minimum inhibitory concentration [4] was 4. For the same compound, the Minimum inhibitory concentration ([5]; Proteus mirabilis clinical strain 1) was over 128, the Minimum inhibitory concentration ([5]; Proteus mirabilis clinical strain 2) was over 128 and the Minimum inhibitory concentration ([5]; Proteus mirabilis clinical strain 3) was over 128. It also gave a Minimum inhibitory concentration ([5]; Proteus mirabilis clinical strain 4) of over 128, a Minimum inhibitory concentration ([5]; Proteus mirabilis clinical strain 5) of over 128 and a Minimum inhibitory concentration ([6]; Serratia marcescens clinical strain 1) of over 128. The Minimum inhibitory concentration ([6]; Serratia marcescens clinical strain 2) was over 128, the Minimum inhibitory concentration ([6]; Serratia marcescens clinical strain 3) was over 128 and the Minimum inhibitory concentration ([6]; Serratia marcescens clinical strain 4) was over 128. It also gave a Minimum inhibitory concentration ([6]; Serratia marcescens clinical strain 5) of over 128, a Minimum inhibitory concentration ([7]; Streptococcus pneumoniae clinical strain 1) of 64 and a Minimum inhibitory concentration ([7]; Streptococcus pneumoniae clinical strain 2) of 64. It also gave a Minimum inhibitory concentration ([7]; Streptococcus pneumoniae clinical strain 3) of 64, a Minimum inhibitory concentration ([7]; Streptococcus pneumoniae clinical strain 4) of 128 and a Minimum inhibitory concentration ([7]; Streptococcus pneumoniae clinical strain 5) of 64. It also gave a Minimum inhibitory concentration ([8]; C. glabrata clinical yeast strain 1) of 8, a Minimum inhibitory concentration ([8]; C. glabrata clinical yeast strain 2) of 8 and a Minimum inhibitory concentration ([8]; C. glabrata clinical yeast strain 3) of 16. For the same compound, the Minimum inhibitory concentration ([8]; C. glabrata clinical yeast strain 4) was 32, the Minimum inhibitory concentration ([9]; Staphylococcus aureus clinical strain 1) was 16 and the Minimum inhibitory concentration ([9]; Staphylococcus aureus clinical strain 2) was 32. The Minimum inhibitory concentration ([9]; Staphylococcus aureus clinical strain 3) was 32, the Minimum inhibitory concentration ([9]; Staphylococcus aureus clinical strain 4) was 16 and the Minimum inhibitory concentration ([9]; Staphylococcus aureus clinical strain 5) was 8. For the same compound, the Minimum inhibitory concentration ([10]; Klebsiella pneumoniae clinical strain 1) was 128, the Minimum inhibitory concentration ([10]; Klebsiella pneumoniae clinical strain 2) was over 128 and the Minimum inhibitory concentration ([10]; Klebsiella pneumoniae clinical strain 3) was over 128. For the same compound, the Minimum inhibitory concentration ([10]; Klebsiella pneumoniae clinical strain 4) was 64, the Minimum inhibitory concentration ([10]; Klebsiella pneumoniae clinical strain 5) was 64 and the Minimum inhibitory concentration ([11]; Acinetobacter baumannii clinical strain 1) was 16. For the same compound, the Minimum inhibitory concentration ([11]; Acinetobacter baumannii clinical strain 2) was 32, the Minimum inhibitory concentration ([11]; Acinetobacter baumannii clinical strain 3) was 16 and the Minimum inhibitory concentration ([11]; Acinetobacter baumannii clinical strain 4) was 16. It also gave a Minimum inhibitory concentration ([11]; Acinetobacter baumannii clinical strain 5) of 8, a Minimum inhibitory concentration ([12]; Enterobacter cloacae clinical strain 1) of 64 and a Minimum inhibitory concentration ([12]; Enterobacter cloacae clinical strain 2) of 64. The Minimum inhibitory concentration ([12]; Enterobacter cloacae clinical strain 3) was 32, the Minimum inhibitory concentration ([12]; Enterobacter cloacae clinical strain 4) was 16 and the Minimum inhibitory concentration ([12]; Enterobacter cloacae clinical strain 5) was 16. The Minimum inhibitory concentration ([13]; C. parapsilosis clinical yeast strain 1) was 8, the Minimum inhibitory concentration ([13]; C. parapsilosis clinical yeast strain 2) was 16 and the Minimum inhibitory concentration ([13]; C. parapsilosis clinical yeast strain 3) was 16. For the same compound, the Minimum inhibitory concentration ([13]; C. parapsilosis clinical yeast strain 4) was 4, the Minimum inhibitory concentration ([14]; Pseudomonas aeruginosa clinical strain 1) was 128 and the Minimum inhibitory concentration ([14]; Pseudomonas aeruginosa clinical strain 2) was over 128. The Minimum inhibitory concentration ([14]; Pseudomonas aeruginosa clinical strain 3) was 128, the Minimum inhibitory concentration ([14]; Pseudomonas aeruginosa clinical strain 4) was over 128 and the Minimum inhibitory concentration ([14]; Pseudomonas aeruginosa clinical strain 5) was 128.

Reference: patent US11096985B2, “Antimicrobial peptides, their variants and uses” (priority 2015, dated 2021)
